Measurements from ChEMBL document CHEMBL4138175, “Newly designed organotin(IV) carboxylates with peptide linkage: Synthesis, structural elucidation, physicochemical characterizations and pharmacological investigations” (Eur J Med Chem, 2018).

Assays:
Assay type in all cases: functional
Klebsiella pneumoniae = assay: Antibacterial activity against Klebsiella pneumoniae assessed as zone of inhibition after 24 to 48 hrs by well diffusion method
Serratia marcescens = assay: Antibacterial activity against Serratia marcescens assessed as zone of inhibition after 24 to 48 hrs by well diffusion method
Staphylococcus aureus = assay: Antibacterial activity against Staphylococcus aureus assessed as zone of inhibition after 24 to 48 hrs by well diffusion method
Escherichia coli = assay: Antibacterial activity against Escherichia coli assessed as zone of inhibition after 24 to 48 hrs by well diffusion method
Pseudomonas aeruginosa = assay: Antibacterial activity against Pseudomonas aeruginosa assessed as zone of inhibition after 24 to 48 hrs by well diffusion method
Streptococcus pyogenes = assay: Antibacterial activity against Streptococcus pyogenes assessed as zone of inhibition after 24 to 48 hrs by well diffusion method
[1] = system: Staphylococcus epidermidis; assay: Antibacterial activity against Staphylococcus epidermidis assessed as zone of inhibition after 24 to 48 hrs by well diffusion method
Leishmania major [2] = assay: Antileishmanial activity against Leishmania major promastigotes at 0.1 uM after 72 hrs by MTT assay relative to control
Leishmania major [3] = assay: Antileishmanial activity against Leishmania major promastigotes at 10 uM after 72 hrs by MTT assay relative to control
Leishmania major [4] = assay: Antileishmanial activity against Leishmania major promastigotes at 100 uM after 72 hrs by MTT assay relative to control
Leishmania major [5] = assay: Antileishmanial activity against Leishmania major promastigotes at 1 uM after 72 hrs by MTT assay relative to control

With `CC1(C)S[C@@H]2[C@H](NC(=O)Cc3ccccc3)C(=O)N2[C@H]1C(=O)O` [PENICILLIN G] the “inhibition zone (IZ)” value (Klebsiella pneumoniae) was 0 mm, the “inhibition zone (IZ)” value (Serratia marcescens) was 8 mm and the “inhibition zone (IZ)” value (Staphylococcus aureus) was 0 mm. The “inhibition zone (IZ)” value (Escherichia coli) was 0 mm, the “inhibition zone (IZ)” value (Pseudomonas aeruginosa) was 6 mm and the “inhibition zone (IZ)” value (Streptococcus pyogenes) was 0 mm. The “inhibition zone (IZ)” value [1] was 0 mm.
In the case of `CC1(C)S[C@@H]2[C@H](NC(=O)[C@H](N)c3ccc(O)cc3)C(=O)N2[C@H]1C(=O)O` [AMOXICILLIN], the “inhibition zone (IZ)” value (Klebsiella pneumoniae) is reported as 6 mm, the “inhibition zone (IZ)” value (Serratia marcescens) is reported as 6 mm and the “inhibition zone (IZ)” value (Staphylococcus aureus) is reported as 0 mm. The “inhibition zone (IZ)” value (Escherichia coli) was 0 mm, the “inhibition zone (IZ)” value (Pseudomonas aeruginosa) was 6 mm and the “inhibition zone (IZ)” value (Streptococcus pyogenes) was 0 mm. For the same compound, the “inhibition zone (IZ)” value [1] was 2 mm.
In the case of `CN(C)[C@@H]1C(O)=C(C(N)=O)C(=O)[C@@]2(O)C(O)=C3C(=O)c4c(O)cccc4[C@@](C)(O)[C@H]3C[C@@H]12` [TETRACYCLINE], the “inhibition zone (IZ)” value (Klebsiella pneumoniae) is reported as 14 mm, the “inhibition zone (IZ)” value (Serratia marcescens) is reported as 0 mm and the “inhibition zone (IZ)” value (Staphylococcus aureus) is reported as 0 mm. The “inhibition zone (IZ)” value (Escherichia coli) was 2 mm, the “inhibition zone (IZ)” value (Pseudomonas aeruginosa) was 6 mm and the “inhibition zone (IZ)” value (Streptococcus pyogenes) was 0 mm. The “inhibition zone (IZ)” value [1] was 10 mm.
`CC1(C)S[C@@H]2[C@H](NC(=O)[C@H](N)c3ccccc3)C(=O)N2[C@H]1C(=O)O` [AMPICILLIN] was tested, and the “inhibition zone (IZ)” value (Klebsiella pneumoniae) was 6 mm, the “inhibition zone (IZ)” value (Serratia marcescens) was 8 mm and the “inhibition zone (IZ)” value (Staphylococcus aureus) was 0 mm. The “inhibition zone (IZ)” value (Escherichia coli) was 0 mm, the “inhibition zone (IZ)” value (Pseudomonas aeruginosa) was 0 mm and the “inhibition zone (IZ)” value (Streptococcus pyogenes) was 0 mm. For the same compound, the “inhibition zone (IZ)” value [1] was 0 mm.
Work on `C[C@@H]1[C@H](O)[C@@H](C)/C=C/C=C/C=C/C=C/C=C/C=C/C=C/[C@H](O[C@@H]2O[C@H](C)[C@@H](O)[C@H](N)[C@@H]2O)C[C@@H]2O[C@](O)(C[C@@H](O)C[C@@H](O)[C@H](O)CC[C@@H](O)C[C@@H](O)CC(=O)O[C@H]1C)C[C@H](O)[C@H]2C(=O)O` [AMPHOTERICIN B] yielded an Activity (Leishmania major [2]) of 69.9%, an Activity (Leishmania major [3]) of 76.3% and an Activity (Leishmania major [4]) of 79.8%. It also gave an Activity (Leishmania major [5]) of 74.8%.
